Reference: patent publication US20260125371A1, “METHOD FOR INHIBITING CLOSTRIDIOIDES DIFFICILE SPORE GERMINATION” (UNIVERSITY OF NOTRE DAME DU LAC, priority 2022, published 2026)
In brackets after ≈: the same amount, converted by molar mass. Like-named read-outs stand apart in the source and are kept apart here.

Key:
S. aureus = assay: MIC against S. aureus strains; assay type: cell-based; conditions: S. aureus ATCC 29213, 24 h; for MIC: Staphylococcus aureus, ATCC29213, 24 h, read-out: MIC (μg/mL) 24 h
C. difficile ATCC 43255 = assay: Determination of minimal-inhibitory concentrations (microdilution), C. difficile ATCC 43255; assay type: cell-based, Clostridioides difficile; conditions: for MIC: Clostridioides difficile; for ATCC43255 MIC: C. difficile ATCC43255
THP-1 cells = assay: Lactate dehydrogenase (LDH) cytotoxicity assay; assay type: cell-based, human; conditions: Homo sapiens, read-out: LDH (IC50)
[1] = system: C. difficile strain ATCC43255 spores; assay: Spore germination inhibition assay; assay type: cell-based, Clostridioides difficile; conditions: compound 45 μM, germinant 6 mM taurocholate and 12 mM glycine, OD600 over 60 min, duplicate; for inhibition at 45 µM: Clostridioides difficile, 1 h
[2] = C. difficile ATCC 43255, 48-h incubation
[3] = ATCC43255, 24 h, C. difficile ATCC 43255, 24 h, read-out: MIC (μg/mL) 24 h
[4] = ATCC43255, 48 h, C. difficile ATCC 43255, 48-h incubation, read-out: MIC (μg/mL) 48 h
[5] = ATCC43255, Table 1, strain ATCC 43255, read-out: MIC C. difficile
[6] = ATCC43255, C. difficile ATCC43255, read-out: ATCC43255 MIC

SMILES	MIC (S. aureus) [µg/mL]	MIC (C. difficile ATCC 43255; [3]) [µg/mL]	MIC (C. difficile ATCC 43255; [6]) [µg/mL]	MIC (μg/mL) 48 h (C. difficile ATCC 43255; [2]) [µg/mL]	inhibition at 45 µM [1] [%]	other results
FC(F)(F)c1ccc(Oc2ccc(-c3noc(-c4n[nH]cc4NC4CCCC4)n3)cc2)cc1 [Compound 38]				>128		MIC (μg/mL) 24 h (S. aureus): >128 µg/mL; MIC (μg/mL) 24 h (C. difficile ATCC 43255; C. difficile ATCC 43255, 24 h): >128 µg/mL
FC(F)(F)c1ccc(Oc2ccc(-c3noc(-c4n[nH]cc4NC4CCCCC4)n3)cc2)cc1 [Compound 39]				>128		MIC (μg/mL) 24 h (S. aureus): >128 µg/mL; MIC (μg/mL) 24 h (C. difficile ATCC 43255; C. difficile ATCC 43255, 24 h): >128 µg/mL
CCCCNc1c[nH]nc1-c1nc(-c2ccc(Oc3ccc(C(F)(F)F)cc3)cc2)no1 [Compound 40]				>128		MIC (μg/mL) 24 h (S. aureus): >128 µg/mL; MIC (μg/mL) 24 h (C. difficile ATCC 43255; C. difficile ATCC 43255, 24 h): >128 µg/mL
CCC(C)Nc1c[nH]nc1-c1nc(-c2ccc(Oc3ccc(C(F)(F)F)cc3)cc2)no1 (centres unmarked) [Compound 41]				>128		MIC (μg/mL) 24 h (S. aureus): >128 µg/mL; MIC (μg/mL) 24 h (C. difficile ATCC 43255; C. difficile ATCC 43255, 24 h): >128 µg/mL
CC(C)(C)OC(=O)N1CCC(Nc2c[nH]nc2-c2nc(-c3ccc(Oc4ccc(C(F)(F)F)cc4)cc3)no2)CC1 [Compound 42]				>128		MIC (μg/mL) 24 h (S. aureus): >128 µg/mL; MIC (μg/mL) 24 h (C. difficile ATCC 43255; C. difficile ATCC 43255, 24 h): >128 µg/mL
O=C(Nc1c[nH]nc1-c1nc(-c2ccc(Oc3ccc(C(F)(F)F)cc3)cc2)no1)c1ccccn1 [Compound 43]				>128		MIC (μg/mL) 24 h (S. aureus): >128 µg/mL; MIC (μg/mL) 24 h (C. difficile ATCC 43255; C. difficile ATCC 43255, 24 h): >128 µg/mL
O=C(Nc1c[nH]nc1-c1nc(-c2ccc(Oc3ccc(C(F)(F)F)cc3)cc2)no1)c1ccccc1 [Compound 44]				>128		MIC (μg/mL) 24 h (S. aureus): >128 µg/mL; MIC (μg/mL) 24 h (C. difficile ATCC 43255; C. difficile ATCC 43255, 24 h): >128 µg/mL
FC(F)(F)c1ccc(Oc2ccc(-c3noc(-c4n[nH]c5ccccc45)n3)cc2)cc1 [Compound 45]				>128		MIC (μg/mL) 24 h (S. aureus): >128 µg/mL; MIC (μg/mL) 24 h (C. difficile ATCC 43255; C. difficile ATCC 43255, 24 h): >128 µg/mL
FC(F)(F)c1ccc(Oc2ccc(-c3noc(-c4c[nH]c5ncccc45)n3)cc2)cc1 [Compound 46]				>128		MIC (μg/mL) 24 h (S. aureus): >128 µg/mL; MIC (μg/mL) 24 h (C. difficile ATCC 43255; C. difficile ATCC 43255, 24 h): >128 µg/mL
O=[N+]([O-])c1c[nH]c(-c2nc(-c3ccc(Oc4ccc(C(F)(F)F)cc4)cc3)no2)c1 [Compound 47]				8 (≈ 19.2 µM)		MIC (μg/mL) 24 h (S. aureus): 8 µg/mL (≈ 19.2 µM); MIC (μg/mL) 24 h (C. difficile ATCC 43255; C. difficile ATCC 43255, 24 h): 8 µg/mL (≈ 19.2 µM)
O=C(O)c1ccc(-c2nc(-c3ccc(OC4CCCC4)cc3)no2)cc1 [Compound 49, 4-(3-(4-(Cyclopentyloxy)phenyl)-1,2,4-oxadiazol-5-yl)benzoic acid]	> 128	> 128		>128		
Nc1ccc(-c2nc(-c3ccc(OC4CCCC4)cc3)no2)cc1 [Compound 51, 4-(3-(4-(Cyclopentyloxy)phenyl)-1,2,4-oxadiazol-5-yl) aniline]	4 (≈ 12.4 µM)	2 (≈ 6.22 µM)		>128		
CS(=O)(=O)Nc1ccc(-c2nc(-c3ccc(OC4CCCC4)cc3)no2)cc1 [Compound 52, N-(4-(3-(4-(Cyclopentyloxy)phenyl)-1,2,4-oxadiazol-5-yl)phenyl) methanesulfonamide]	> 128	> 128		>128		
NCc1ccc(-c2nc(-c3ccc(OC4CCCC4)cc3)no2)cc1 [Compound 53, (4-(3-(4-(Cyclopentyloxy)phenyl)-1,2,4-oxadiazol-5-yl)phenyl) methanamine]	2 (≈ 5.96 µM)	4 (≈ 11.9 µM)				MIC (C. difficile ATCC 43255; [4]): 8 µg/mL (≈ 23.9 µM)
Cl.NCCCCc1nc(-c2ccc(OC3CCCC3)cc2)no1 [Compound 67, 4-(3-(4-(Cyclopentyloxy)phenyl)-1,2,4-oxadiazol-5-yl)butan-1-amine hydrochloride salt]	> 128	128				MIC (C. difficile ATCC 43255; [4]): 128 µg/mL
CCOc1ccc(-c2noc(-c3ccc(O)cc3)n2)cc1 [Compound 86, 4-(3-(4-Ethoxyphenyl)-1,2,4-oxadiazol-5-yl)phenol]	> 128	> 128				MIC (C. difficile ATCC 43255; [4]): > 128 µg/mL

SMILES	MIC (S. aureus) [µg/mL]	MIC (C. difficile ATCC 43255; [3]) [µg/mL]	MIC (C. difficile ATCC 43255; [6]) [µg/mL]	MIC (μg/mL) 48 h (C. difficile ATCC 43255; [2]) [µg/mL]	inhibition at 45 µM [1] [%]	other results
CCCOc1ccc(-c2noc(-c3ccc(O)cc3)n2)cc1 [Compound 87, 4-(3-(4-Propoxyphenyl)-1,2,4-oxadiazol-5-yl)phenol]	128 (≈ 432 µM)	4 (≈ 13.5 µM)				MIC (C. difficile ATCC 43255; [4]): > 128 µg/mL
CCCCOc1ccc(-c2noc(-c3ccc(O)cc3)n2)cc1 [Compound 90, 4-(3-(4-Butoxyphenyl)-1,2,4-oxadiazol-5-yl)phenol]	> 128	> 128				MIC (C. difficile ATCC 43255; [4]): > 128 µg/mL
Oc1ccc(-c2nc(-c3ccc(OC4CC4)cc3)no2)cc1 [Compound 92, 4-(3-(4-Cyclopropoxyphenyl)-1,2,4-oxadiazol-5-yl)phenol]	> 128	> 128				MIC (C. difficile ATCC 43255; [4]): > 128 µg/mL
Oc1ccc(-c2nc(-c3ccc(OC4CCC4)cc3)no2)cc1 [Compound 93, 4-(3-(4-Cyclobutoxyphenyl)-1,2,4-oxadiazol-5-yl)phenol]	> 128	> 128				MIC (C. difficile ATCC 43255; [4]): > 128 µg/mL
O=[N+]([O-])c1c[nH]nc1-c1nc(-c2ccc(OC(F)(F)F)cc2)no1 [Compound 115, 5-(4-Nitro-1H-pyrazol-3-yl)-3-(4-(trifluoromethoxy)phenyl)-1,2,4-oxadiazole]		2 (≈ 5.86 µM)				IC50 (THP-1 cells; THP-1, 24 h): 25 ± 4 µg/mL (≈ 73.3 µM); MIC (C. difficile ATCC 43255; [5]): 4 µg/mL (≈ 11.7 µM)
COc1ccc2oc3ccc(-c4noc(-c5n[nH]cc5[N+](=O)[O-])n4)cc3c2c1 [Compound 119, 3-(8-Methoxydibenzo[b,d]furan-2-yl)-5-(4-nitro-1H-pyrazol-3-yl)-1,2,4-oxadiazole]	32 (≈ 84.8 µM)	2 (≈ 5.3 µM)				MIC (C. difficile ATCC 43255; [4]): 64 µg/mL (≈ 170 µM)
c1cc2cc(-c3nc(-c4ccc5occc5c4)no3)ccc2[nH]1 [Compound 120, 3-(Benzofuran-5-yl)-5-(1H-indol-5-yl)-1,2,4-oxadiazole]	64 (≈ 212 µM)	> 128				MIC (C. difficile ATCC 43255; [4]): > 128 µg/mL
Oc1ccc(-c2cc(-c3ccc(Oc4ccccc4)cc3)no2)cc1 [Compound 135, 4-(3-(4-Phenoxyphenyl)isoxazol-5-yl)phenol]	> 128	> 128		>128		
Oc1ccc(-n2cc(-c3ccc(Oc4ccccc4)cc3)nn2)cc1 [Compound 136, 4-(4-(4-Phenoxyphenyl)-1H-1,2,3-triazol-1-yl)phenol]	> 128	> 128		>128		
Oc1ccc(-c2noc(-c3ccc(OC4CCCC4)cc3)n2)cc1 [Compound 137, 5-(4-(Cyclopentyloxy)phenyl)-3-(4-hydroxyphenyl)-1,2,4-oxadiazole]		4 (≈ 12.4 µM)				IC50 (THP-1 cells; THP-1 cells, 24 h): 8.5 ± 0.2 µg/mL (≈ 26.4 µM); MIC (C. difficile ATCC 43255; [5]): 4 µg/mL (≈ 12.4 µM)
O=C1CC(c2nc(-c3ccc(Oc4ccc(C(F)(F)F)cc4)cc3)no2)CN1 (centres unmarked) [DR-03-138]			> 128		30 ± 14	
O=[N+]([O-])c1c[nH]nc1-c1nc(-c2ccc(Oc3ccc(C(F)(F)F)cc3)cc2)no1 [DR-04-089]						% Spore Germination Inhibition at 45 μM [1]: 20 ± 3%; ATCC43255 MIC (C. difficile ATCC 43255): >128 mg/L
Oc1ccc(-c2nc(-c3ccc(Oc4ccc(I)cc4)cc3)no2)cc1 [MAB-01-250A]						% Spore Germination Inhibition at 45 μM [1]: 62 ± 2%; ATCC43255 MIC (C. difficile ATCC 43255): >128 mg/L
NCc1ccc(-c2nc(-c3ccc(Oc4ccc(C(F)(F)F)cc4)cn3)no2)cc1 [YQ-4-107]					24 ± 3	
C#Cc1ccc(Oc2cnc(-c3noc(-c4ccc(CN)cc4)n3)cc2C2(C(F)(F)F)N=N2)cc1 [YQ-4-169]						% Spore Germination Inhibition at 45 μM [1]: 63 ± 3%; ATCC43255 MIC (C. difficile ATCC 43255): 8 mg/L

Continued, in another order:

MIC (S. aureus) [µg/mL]	MIC (C. difficile ATCC 43255; [3]) [µg/mL]	MIC (C. difficile ATCC 43255; [6]) [µg/mL]	SMILES	MIC (μg/mL) 48 h (C. difficile ATCC 43255; [2]) [µg/mL]	inhibition at 45 µM [1] [%]	other results
		> 128	NCc1ccc(-c2nc(-c3ccc(Oc4ccc(F)cc4)cc3)no2)cc1 [DR-05-250]		73 ± 5	
		> 128	NCCCCc1nc(-c2ccc(Oc3ccc(C(F)(F)F)cc3)cc2)no1 [DR-06-025]		44 ± 2	
		> 128	Nc1cc(Oc2ccccc2)cnc1-c1noc(-c2ccc(O)cc2)n1 [MAB-02-27A]		17 ± 1	
		> 128	O=[N+]([O-])c1ccccc1Oc1ccc(-c2noc(-c3ccc(O)cc3)n2)nc1 [MAB-02-29A]		26 ± 1	
		> 128	Oc1ccc(-c2nc(-c3ccc(Oc4ccccc4CBr)cc3)no2)cc1 [MAB-02-59A]		30 ± 3	
		4 (≈ 11.9 µM)	NCc1ccc(-c2nc(-c3ccc(OC4CCCC4)cc3)no2)cc1 [YQ-4-81]		41 ± 1	
		8 (≈ 21 µM)	NCc1ccc(-c2nc(-c3ccc(Oc4ccc(F)c(F)c4)cn3)no2)cc1 [YQ-4-99]		44 ± 3	
		8 (≈ 19.4 µM)	NCc1ccc(-c2nc(-c3ccnc(Oc4ccc(C(F)(F)F)cc4)c3)no2)cc1 [YQ-4-104]		74 ± 5	
		16 (≈ 42.4 µM)	CC(C)Oc1ccc(-c2noc(-c3ccc(CN)cc3)n2)cc1C(F)(F)F [YQ-4-155]		33 ± 1	
		> 128	NCc1ccc(-c2noc(-c3ccnc(-c4ccc(C(F)(F)F)cc4)c3)n2)cc1 [YQ-4-161]		55 ± 1	
		16 (≈ 40.4 µM)	NCc1ccc(-c2nc(-c3ccnc(-c4ccc(C(F)(F)F)cc4)c3)no2)cc1 [YQ-4-163]		68 ± 5	
		8 (≈ 22.9 µM)	NCc1ccc(-c2nc(-c3ccc(OC4CCCCC4)cc3)no2)cc1 [YQ-4-165]		50 ± 2	
		8 (≈ 21.3 µM)	NCCc1ccc(-c2nc(-c3ccc(Oc4ccc(F)cc4)cn3)no2)cc1 [YQ-4-170]		48 ± 2	
